# Measured values taken from patent US9084813B2, “Agents that reduce neuronal overexcitation” (The J. David Gladstone Institutes, priority 2007, dated 2015).
# How the values were obtained:
# mice [1] = assay: Excitotoxicity assessment: PTZ-induced seizures; format: in vivo, mouse; settings: single i.p. injection 40 mg/kg
# Protocol: (§1) Drugs were dissolved in PBS and delivered by intraperitoneal injection. Pentylenetetrazole (PTZ, Sigma, St. Louis, Mo.) was used at a concentration of 5 mg/ml and a dose of 40 mg/kg. Kainate (Tocris, Ellisville, Mo.) was used at a concentration of 2 mg/ml and doses ranging from 20-40 mg/kg. For mice given PTZ, each mouse was placed in a cage and observed for 20 min after administration, with video recording. An investigator blinded to genotype analyzed the videotapes to quantify the time course and severity of seizures according to published scales (9, 10). Seizures severity scores were: 0=normal behavior; 1=immobility; 2=generalized spasm, tremble, or twitch; 3=tail extension; 4=forelimb clonus; 5=generalized clonic activity; 6=bouncing or running seizures; 7=full tonic extension; 8=death. For mice given KA, each mouse was placed in a cage and observed for 3 hours after administration. An investigator blinded to genotype quantified the time course and severity of seizures according to published scales (11); the percentage of mice attaining stage 6 (generalized tonic-clonic seizures) is presented.
# A value of P<0.05 was considered significant. Error bars represent standard error of the mean. Survival data (FIG. 2E) was analyzed with Kaplan-Meier statistics and post-hoc log rank tests. Fisher's exact test was used to analyze occurrence of fatal status epilepticus after PTZ injection. Logistic regression was used to generate and compare dose-response curves for the proportion of mice seizing after KA administration (FIG. 4D). For other experiments, genotype differences were analyzed by ANOVA (repeated measures where indicated), using the Tukey test for post-hoc comparisons.
# mice [2] = assay: Excitotoxicity assessment: kainate-induced seizures; format: in vivo, mouse; settings: Tau^+/+ mice, single i.p. injection, 20-40 mg/kg, age 2-5 months
# Protocol: as §1
# A value of P<0.05 was considered significant. […] Survival data (FIG. 2E) was analyzed with Kaplan-Meier statistics and post-hoc log rank tests. […] For other experiments, genotype differences were analyzed by ANOVA (repeated measures where indicated), using the Tukey test for post-hoc comparisons.
Structure (SMILES),"mice suffering fatal status epilepticus (mice [1]; hAPP/Tau^+/+ mice, age 4-7 months) [%]",death after PTZ (mice [1]; hAPP/Tau^+/− and hAPP/Tau^−/− mice),lethality of the dose (mice [1]; mice without hAPP),induction of generalized tonic-clonic seizures (mice [2])
"C1CCc2nnnn2CC1 [PTZ, Pentylenetetrazole]",20,no hAPP/Tau^+/− or hAPP/Tau^−/− mice died,non-lethal,–
"C=C(C)[C@H]1CN[C@H](C(=O)O)[C@H]1CC(=O)O [kainate, Kainate]",–,–,–,dose-dependently induced seizures
